Measurements from PubChem BioAssay (NCI).
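Where inhibition never reached the appropriate level, the endpoint shown equals the highest concentration tested. Otherwise, values were interpolated linearly from a five-concentration, 48-hour dose response in 96-well plates. At the GI50, growth is halved. At the TGI there is no net growth.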

Assays:
Assay in all cases: DTP human tumour cell line panel, 48 h
[1] = tested on: ACHN renal
[2] = tested on: CCRF-CEM leukemia
[3] = tested on: K-562 leukemia
[4] = tested on: MALME-3M melanoma
[5] = tested on: OVCAR-3 ovarian
[6] = tested on: SF-295 CNS
[7] = tested on: SF-539 CNS
[8] = tested on: SK-MEL-5 melanoma
[9] = tested on: SN12C renal
[10] = tested on: HS 578T breast

Row | SMILES | TGI [1] [µM] | TGI [2] [µM] | TGI [3] [µM] | TGI [4] [µM] | TGI [5] [µM] | TGI [6] [µM] | TGI [7] [µM] | TGI [8] [µM] | TGI [9] [µM] | GI50 [1] [µM] | GI50 [10] [µM] | TGI [10] [µM] | GI50 [3] [µM] | GI50 [4] [µM] | GI50 [5] [µM] | GI50 [6] [µM] | GI50 [7] [µM] | GI50 [8] [µM] | GI50 [9] [µM] | GI50 [2] [µM]
1 | C[C@H]1COC2(c3ccccc3)CCC(=O)N12 (some centres undefined) | > 100 | > 100 | > 100 | > 100 | > 100 | > 100 | > 100 | > 100 | > 100 | – | – | – | – | – | – | – | – | – | – | –
2 | O=C1OC(c2ccccc2)=N/C1=C\c1c(O)cc(O)cc1O | > 100 | > 100 | > 100 | > 100 | > 100 | – | > 100 | > 100 | > 100 | – | – | – | – | – | – | – | – | – | – | –
3 | O=C(NCCN1CCOCC1)Nc1ccc(-c2cc3c(Nc4ccc(Oc5cccc(C(F)(F)F)c5)c(Cl)c4)ncnc3s2)cc1 | 6.06 | – | 3.31 | 1.57 | 8.54 | 2 | 2.01 | 1.71 | 8.21 | 1.74 | 1.16 | 3.84 | 0.706 | 0.832 | 2.34 | 0.936 | 0.825 | 0.916 | 1.97 | –
4 | OCC(O)COc1c(Cl)ccc(Cl)c1Cl (centres undefined) | > 100 | > 100 | > 100 | > 100 | > 100 | > 100 | > 100 | > 100 | > 100 | – | – | – | – | – | – | – | – | – | – | –
5 | O=C(CCc1ccccc1)On1nnc2ccccc2c1=O | > 100 | > 100 | > 100 | > 100 | > 100 | > 100 | > 100 | > 100 | > 100 | – | – | – | – | – | – | – | – | – | – | –
6 | CC(=O)OCC(OC(C)=O)C(OC(C)=O)C(OC(C)=O)C(=O)CNn1c(-c2ccccc2)nc2ccc(Br)cc2c1=O (centres undefined) | > 100 | > 100 | > 100 | > 100 | > 100 | > 100 | > 100 | > 100 | > 100 | – | – | – | – | – | – | – | – | – | – | –
7 | CC(C)CC(CNC(Cc1ccc(Cl)cc1)C(N)=O)NC(=O)C(Cc1cnc[nH]1)NC(=O)CNC(=O)C(NC(=O)C(C)NC(=O)C(Cc1c[nH]c2ccccc12)NC(=O)C(CCC(=O)O)NC(=O)C(N)Cc1ccccc1)C(C)C (centres undefined) | > 133 | > 133 | > 133 | – | > 133 | > 133 | > 133 | – | > 133 | – | – | – | – | – | – | – | – | – | – | –
8 | Cc1[nH]c(=O)nc(CC(O)(c2ccccc2)c2ccccc2)c1-c1ccccc1 | > 100 | > 100 | > 100 | > 100 | > 100 | > 100 | > 100 | > 100 | > 100 | – | – | – | – | – | – | – | – | – | – | –
9 | O=C(Nc1cccc(C(F)(F)F)c1)c1cccc(NC2=C(Cl)C(=O)N(Cc3ccccc3)C2=O)c1 | 85.2 | 51.6 | 17.6 | – | > 100 | > 100 | 62.7 | 38.2 | > 100 | 15.8 | 43.8 | > 100 | 3.02 | – | 8 | 20.2 | 26 | 18 | 14.9 | 1.87
10 | Fc1ccc(F)c(C2SCc3nc4ccccc4n32)c1 (centres undefined) | > 100 | > 100 | > 100 | > 100 | > 100 | > 100 | > 100 | 46.6 | > 100 | – | – | – | – | – | – | – | – | – | – | –
11 | COc1ccc(NC(=O)Nc2ccc(Nc3nc(C)cc(Nc4ccc(C)cc4)n3)cc2)cc1 | 3.13 | – | – | 3.58 | 2.81 | 3.18 | 3.31 | 2.96 | 3.86 | 1.75 | 2.22 | 5.4 | – | 1.83 | 1.35 | 1.71 | 1.7 | 1.6 | 1.88 | –
12 | CCc1ccccc1-n1c2nc(=O)n(C)c(=O)c-2nc2ccccc21 | 16.3 | 39.3 | 31.8 | 18.2 | 6.79 | 24 | 27.7 | 16.8 | 26.6 | – | – | – | – | – | – | – | – | – | – | –
13 | COc1cc2nc(-c3ccc(-n4cncc4-c4ccc(N)cc4)cc3)sc2c(OC)c1OC | > 100 | – | – | 6.44 | 15.1 | 7.14 | > 100 | > 100 | > 100 | 8.56 | 5.36 | 49.7 | – | 0.71 | 2.73 | 1.53 | 7.14 | 2.74 | 8.95 | –
14 | COc1cc(/C=C2\CC3C4CC=C5C[C@@H](N6CCCC6)CC[C@]5(C)C4CC[C@]3(C)[C@H]2OC(C)=O)ccc1OCCN1CCCCC1 (some centres undefined) | 3.73 | 0.777 | 0.71 | 0.529 | 3.34 | 3.44 | 3.16 | 2.87 | 2.56 | 1.91 | – | – | 0.105 | 0.164 | 1.64 | 1.85 | 1.66 | 1.53 | 0.775 | 0.0346
15 | CCOC(=O)C1=C(NC(C)(C)C)OCC1=O | > 100 | – | > 100 | > 100 | > 100 | > 100 | > 100 | – | > 100 | – | – | – | – | – | – | – | – | – | – | –
16 | Cc1cccc2c1Oc1cc(Cl)ccc1C2NC(=O)CN(C)C (centres undefined) | > 100 | > 100 | > 100 | – | – | – | > 100 | 49.3 | > 100 | – | – | – | – | – | – | – | – | – | – | –
17 | Cc1c(C2Cc3ccccc3N2C(=O)/C=C\C(=O)O)c2ccccc2n1C (centres undefined) | > 100 | > 100 | > 100 | > 100 | 43.1 | 50.4 | 42.6 | 41.5 | 45.6 | – | – | – | – | – | – | – | – | – | – | –
18 | O=C(O)C(Br)C(Br)c1ccccc1[N+](=O)[O-] (centres undefined) | > 100 | – | > 100 | > 100 | > 100 | > 100 | > 100 | > 100 | > 100 | – | – | > 100 | – | – | – | – | – | – | – | –
19 | CN1CCN(Cc2ccc(NC(=O)c3[nH]ncc3Nc3ncnc4sccc34)cc2)CC1 | 0.791 | – | > 100 | – | 2.54 | > 100 | 1.56 | – | > 100 | 0.223 | 0.0604 | 2.93 | 0.235 | – | 0.306 | 0.325 | 0.127 | – | 0.361 | –
